From the NIST ThermoML archive (doi:10.1016/j.jct.2012.07.022)

Assay: wn = mass fraction of the nth substance listed
Conditions: 101 kPa, Liquid; for electrical conductivity: Alternating current cell with electrodes; for viscosity: Capillary tube (Ostwald / Ubbelohde) method; for mass density: Vibrating tube method

Nc1[nH]cnc2ncnc1-2 [6-amino-1H-purine] + CC(=O)[O-].CCn1cc[n+](C)c1
Conditions | electrical conductivity [S/m] | mass density [kg/m3] | viscosity [mPa·s]
298.15 K, w2 = 0 | 0.296 | 1097.6 | 128.5
298.15 K, w2 = 0.0482 | 0.209 | 1111.1 | 197.7
298.15 K, w2 = 0.1008 | 0.143 | 1124.3 | 318
298.15 K, w2 = 0.1514 | 0.0996 | 1135 | 498.1
298.15 K, w2 = 0.2055 | 0.0672 | 1146.4 | 823.2
298.15 K, w2 = 0.2481 | 0.0471 | 1154.5 | 1235.7
303.15 K, w2 = 0 | 0.382 | 1094.5 | 95.23
303.15 K, w2 = 0.0482 | 0.278 | 1107.9 | 141
303.15 K, w2 = 0.1008 | 0.197 | 1121.1 | 218
303.15 K, w2 = 0.1514 | 0.142 | 1131.7 | 328.1
303.15 K, w2 = 0.2055 | 0.0995 | 1143 | 517.9
303.15 K, w2 = 0.2481 | 0.0718 | 1151.2 | 748.9
308.15 K, w2 = 0 | 0.48 | 1091.4 | 72.42
308.15 K, w2 = 0.0482 | 0.362 | 1104.9 | 103.7
308.15 K, w2 = 0.1008 | 0.264 | 1118 | 154.8
308.15 K, w2 = 0.1514 | 0.196 | 1128.6 | 224.7
308.15 K, w2 = 0.2055 | 0.142 | 1139.8 | 341.2
308.15 K, w2 = 0.2481 | 0.105 | 1147.9 | 477.5
313.15 K, w2 = 0 | 0.594 | 1088.4 | 56.38
313.15 K, w2 = 0.0482 | 0.459 | 1101.9 | 78.37
313.15 K, w2 = 0.1008 | 0.346 | 1114.9 | 113.4
313.15 K, w2 = 0.1514 | 0.262 | 1125.5 | 159.6
313.15 K, w2 = 0.2055 | 0.194 | 1136.6 | 233.9
313.15 K, w2 = 0.2481 | 0.148 | 1144.7 | 318.1
318.15 K, w2 = 0 | 0.827 | – | –
318.15 K, w2 = 0.0482 | 0.571 | – | –
318.15 K, w2 = 0.1008 | 0.439 | – | –
318.15 K, w2 = 0.1514 | 0.34 | – | –
318.15 K, w2 = 0.2055 | 0.259 | – | –
318.15 K, w2 = 0.2481 | 0.202 | – | –
